From patent publication US10561704B2, “Compositions and methods for treating neuropsychiatric disorders using an endothelin-B receptor agonist” (MIDWESTERN UNIVERSITY, priority 2013, dated 2020)
*1 amine or outer side, *2 acyl side, *3 side chain or, on linkers, in order; H or OH if unused. Where no end group is shown, it is not given here. Suc = O=C(CCC(=O)[*:2])[*:1]

How the values were obtained:
[1] = system: middle cerebral artery occluded rats; experiment: Angiogenesis and neurogenesis markers (ETB, NeuN, BrdU, VEGF, NGF) following cerebral ischemia; format: in vivo
Experimental: FIG. 16: Effect of ETB receptor agonist, IRL-1620 (three doses of 5 μg/kg, i.v., at 2, 4 and 6 h post ischemia), and antagonist, BQ788 (1 mg/kg, i.v.), on neuronal nuclei (NeuN) post middle cerebral artery occlusion. (A) Representative image of the cortex of an IRL-1620-treated animal 1 week following MCAO, stained for the ETB receptor (green) and NeuN (red). Scale bar=100 μm. (B) Representative image of the striatum of an IRL-1620-treated animal 1 week following MCAO, stained for the ETB receptor (green) and NeuN (red). Scale bar=10 μm. (C) Number of neuronal nuclei per 100 μm^2 in the cortex, striatum, and subventricular zone of middle cerebral artery occluded rats at 24 h after infarct. *P<0.05 vs. sham. ^#P<0.01 vs. MCAO+vehicle. ^@P<0.0001 vs. MCAO+IRL-1620. (D) Number of neuronal nuclei per 100 μm^2 in the cortex, striatum, and subventricular zone of middle cerebral artery occluded rats at 1 week after infarct. Values are expressed as mean±SEM (n=5/group). *P<0.0001 vs. sham. ^#P<0.0001 vs. MCAO+vehicle. ^@P<0.0001 vs. MCAO+IRL-1620.
FIG. 17: Effect of ETB receptor agonist, IRL-1620 (3 doses of 5 μg/kg, i.v., at 2, 4 and 6 hours post ischemia), and antagonist, BQ788 (1 mg/kg, i.v.), on proliferating cells post middle cerebral artery occlusion. Representative image of the cortex of an IRL-1620-treated animal 1 week following MCAO depicting a cerebral blood vessel, stained for the ETB receptor (green) and BrdU (red). Scale bar=100 μm. […] Values are expressed as mean±SEM (n=5/group). *P<0.01 vs. sham. #P<0.0001 vs. MCAO+vehicle. @P<0.0001 vs. MCAO+IRL-1620.
FIG. 19: Effect of ETB receptor agonist, IRL-1620 (3 doses of 5 μg/kg, i.v., at 2, 4 and 6 hours post ischemia), and antagonist, BQ788 (1 mg/kg, i.v.), on vascular endothelial growth factor (VEGF) post middle cerebral artery occlusion. […] Values are expressed as mean±SEM (n=5/group). *P<0.01 vs. sham. #P<0.01 vs. MCAO+vehicle. @P<0.05 vs. MCAO+IRL-1620.
FIG. 21: Effect of ETB receptor agonist, IRL-1620 (3 doses of 5 μg/kg, i.v., at 2, 4 and 6 hours post ischemia), and antagonist, BQ788 (1 mg/kg, i.v.), on nerve growth factor (NGF) post middle cerebral artery occlusion. A. Representative image of the cortex of an IRL-1620-treated animal 1 week following MCAO, stained for the ETB receptor (green) and NGF (red). Scale bar=10 μm. B. Number of NGF+cells per 100 μm^2 in the cortex, striatum, and subventricular zone of middle cerebral artery occluded rats at 1 week after infarct. Values are expressed as mean±SEM (n=5/group). #P<0.0001 vs. MCAO+vehicle. @P<0.0001 vs. MCAO+IRL-1620.
Effect of IRL-1620 on angiogenesis and neurogenesis following cerebral ischemia in rats: Angiogenesis and neurogenesis are the driving forces for the neurovascular remodeling that is essential post-stroke to restore normal brain function (Hawkins and Davis, 2005). VEGF is an endogenous protein known for its ability to promote angiogenesis and enhance vascular permeability. Under hypoxic conditions such as cerebral ischemia, VEGF expression is induced in neurons, astrocytes and endothelial cells via hypoxia-inducible factor-1 (HIF-1) (Breier and Risau, 1996). Once expressed, VEGF initiates both direct and indirect neuroprotective actions, inhibiting apoptosis, stimulating neurogenesis and angiogenesis, increasing glucose uptake and activating antioxidants (Gora-Kupilas and Josko, 2005). It has been shown that intracerebroventricular (i.c.v.) administration of an ETB receptor agonist in normal rats stimulates production of VEGF and activates VEGF receptors in the brain, while, in cultured astrocytes, this agonist increases VEGF-A mRNA as well as BrdU incorporation (Koyama et al., 2012; Koyama et al., 2011). ETB receptor agonist, IRL-1620, has been shown in our previous studies, to provide significant neuroprotection at both 24 hours and 1 week following permanent cerebral ischemia. […]

[2] = system: normal rats; settings: intravenous; cited from earlier work

Row | Compound | Number of proliferating cells in the infarcted brain ([1]; 1 week after MCAO) | VEGF-positive vessels/30 μm brain slice ([1]; 1 week following MCAO) | ETB receptor expression in cortex, striatum and SVZ ([1]; 24 hours post occlusion) | Neuronal numbers in cortex, striatum and SVZ ([1]; 24 hours post occlusion) | Number of blood vessels labeled with VEGF ([1]; 24 hours post occlusion, vs vehicle treatment) | NGF-positive cells per 100 μm^2 ([1]; SVZ, 1 week after MCAO) [per 100 μm^2] | NGF-positive cells per 100 μm^2 ([1]; cortex, 1 week after MCAO) [per 100 μm^2] | NGF-positive cells per 100 μm^2 ([1]; striatum, 1 week after MCAO) [per 100 μm^2] | Cerebral blood flow (CBF) [2] | Effects of IRL-1620 treatment (neurovascular remodeling) ([1]; pretreatment with BQ-788)
1 | Suc-Asp-Glu-Glu-Ala-Val-Tyr-Phe-Ala-His-Leu-Asp-Ile-Ile-Trp (Suc-DEEAVYFAHLDIIW) [IRL-1620] | increased number | 11.33±2.13 | increased | preserved | enhanced | 3.05±0.38 | 2.29±0.31 | 2.08±0.26 | significant elevation | –
2 | CCCC[C@@H](NC(=O)[C@@H](Cc1cn(C(=O)OC)c2ccccc12)NC(=O)[C@H](CC(C)(C)C)NC(=O)N1[C@H](C)CCC[C@@H]1C)C(=O)O [BQ788, reference compound] | – | – | – | – | – | – | – | – | – | blocked
